We go through one compound from patent US9809626B2, “Antibacterial agents: salinamide derivatives” (priority 2012, dated 2017).

Series [1] concerns rifamycin-, CBR703-, streptolydigin-, myxopyronin- and lipiarmycin-resistant mutants. The settings on record: Ebright et al., WO/2012/129173; cited from earlier work.
The test system is the same in series [2]. The settings on record: disclosed herein.
The subject of series [3] is Pseudomonas aeruginosa ATCC10145. The experiment in a line: Antibacterial activity, broth microdilution. The settings on record: Gram-negative bacterial pathogen. In kind it is cell-based. From the text:
(§1) Antibacterial activity was quantified using broth microdilution [Clinical and Laboratory Standards Institute (CLSI/NCCLS), Methods for Dilution Antimicrobial Susceptibility Tests for Bacteria That Grow Aerobically; Approved Standard, Eighth Edition. CLIS Document M07-A8 (CLIS, Wayne Pa.), 2009]. Assays with Enterobacter cloacae ATCC13047, Pseudomonas aeruginosa ATCC10145, and Escherichia coli D21f2to1C, employed a starting cell density of 2-5×10^5 cfu/ml, Mueller Hinton II cation adjusted broth (BD Biosciences, Inc.), and an air atmosphere. Assays with Haemophilus influenzae ATCC49247 and Neisseria gonorrhoeae ATCC19424 employed a starting cell density of 2-5×10^5 cfu/ml, Haemophilus Test Medium broth (Barry et al., 1993) and a 5% CO2/95% air atmosphere. MIC50 was defined as the minimal concentration resulting in ≧50% inhibition of bacterial growth.

Series [4] relates to Haemophilus influenzae ATCC49247. Kind of series: Antibacterial activity, broth microdilution. The series is classed as cell-based. The settings on record: Gram-negative bacterial pathogen.
From the text: as §1
On the technique in general: Broth dilution looks for growth in wells or tubes with falling amounts of substance.

Series [5] relates to Neisseria gonorrhoeae ATCC19424. The experiment in a line: Antibacterial activity, broth microdilution. To be noted: Gram-negative bacterial pathogen. In kind it is cell-based.
From the text: as §1

Series [6] deals with Escherichia coli D21f2tolC. Kind of series: Antibacterial activity, broth microdilution. The series is classed as cell-based. The settings on record: Escherichia coli, D21F2TOLC, read-out: MIC50 Escherichia coli D21f2tolC.
From the text: as §1

Series [7] deals with Enterobacter cloacae ATCC13047. The experiment in a line: Antibacterial activity, broth microdilution. The series is classed as cell-based.
From the text: as §1

In series [8] the test system is Gram-positive bacterial pathogens. The settings on record: reported previously (Trischman et al. 1994; Moore et al. 1999); cited from earlier work.
The test system of series [9] is human RNAP I, II, and III. Kind of series: Radiochemical assay with human RNAP I, II, and III (HeLaScribe Nuclear Extract). The series is classed as biochemical. The procedure: Radiochemical assays with human RNAP I, II, and III were performed essentially as described [Sawadogo and Roeder, Cell 43:165-75, 1985]. Reaction mixtures contained (20 μl): 0-100 μM test compound, 8 U HeLaScribe Nuclear Extract (Promega, Inc.), 1 μg human placental DNA (Sigma-Aldrich), 400 μM ATP, 400 μM [α^32P]UTP (0.11 Bq/fmol), 400 μM CTP, 400 μM GTP, 50 mM Tris-HCl, pH 8.0, 7 mM HEPES-NaOH, 70 mM (NH4)2SO4, 50 mM KCl, 12 mM MgCl2, 5 mM DTT, 0.1 mM EDTA, 0.08 mM phenylmethylsulfonyl fluoride, and 16% glycerol. Reaction components other than DNA and NTPs were pre-incubated 10 min at 30° C., DNA was added and reaction mixtures were incubated 15 min at 30° C., NTPs were added and reaction mixtures were incubated 60 min at 30° C. Reaction mixtures were spotted on DE81 filter discs (Whatman, Inc.; pre-wetted with water) and incubated 1 min at room temperature. Filters were washed with 3×3 ml Na2HPO4, 2×3 ml water, and 3 ml ethanol, using a filter manifold (Hoefer, Inc.). Filters were placed in scintillation vials containing 10 ml Scintiverse BD Cocktail (Thermo Fisher, Inc.), and radioactivity was quantified by scintillation counting (LS6500; Beckman-Coulter, Inc.).
(§2) Half-maximal inhibitory concentrations (IC50s) were calculated by non-linear regression in SigmaPlot (SPSS, Inc.).

The target in series [10] is RNAP-promoter open complex (Escherichia coli, UniProt P0A8T7+P0A8V2). Kind of series: Formation of the RNAP-promoter open complex. In kind it is biochemical.
Chain of RNAP-promoter open complex (P0A8T7 whole entry, the tested form may be a part): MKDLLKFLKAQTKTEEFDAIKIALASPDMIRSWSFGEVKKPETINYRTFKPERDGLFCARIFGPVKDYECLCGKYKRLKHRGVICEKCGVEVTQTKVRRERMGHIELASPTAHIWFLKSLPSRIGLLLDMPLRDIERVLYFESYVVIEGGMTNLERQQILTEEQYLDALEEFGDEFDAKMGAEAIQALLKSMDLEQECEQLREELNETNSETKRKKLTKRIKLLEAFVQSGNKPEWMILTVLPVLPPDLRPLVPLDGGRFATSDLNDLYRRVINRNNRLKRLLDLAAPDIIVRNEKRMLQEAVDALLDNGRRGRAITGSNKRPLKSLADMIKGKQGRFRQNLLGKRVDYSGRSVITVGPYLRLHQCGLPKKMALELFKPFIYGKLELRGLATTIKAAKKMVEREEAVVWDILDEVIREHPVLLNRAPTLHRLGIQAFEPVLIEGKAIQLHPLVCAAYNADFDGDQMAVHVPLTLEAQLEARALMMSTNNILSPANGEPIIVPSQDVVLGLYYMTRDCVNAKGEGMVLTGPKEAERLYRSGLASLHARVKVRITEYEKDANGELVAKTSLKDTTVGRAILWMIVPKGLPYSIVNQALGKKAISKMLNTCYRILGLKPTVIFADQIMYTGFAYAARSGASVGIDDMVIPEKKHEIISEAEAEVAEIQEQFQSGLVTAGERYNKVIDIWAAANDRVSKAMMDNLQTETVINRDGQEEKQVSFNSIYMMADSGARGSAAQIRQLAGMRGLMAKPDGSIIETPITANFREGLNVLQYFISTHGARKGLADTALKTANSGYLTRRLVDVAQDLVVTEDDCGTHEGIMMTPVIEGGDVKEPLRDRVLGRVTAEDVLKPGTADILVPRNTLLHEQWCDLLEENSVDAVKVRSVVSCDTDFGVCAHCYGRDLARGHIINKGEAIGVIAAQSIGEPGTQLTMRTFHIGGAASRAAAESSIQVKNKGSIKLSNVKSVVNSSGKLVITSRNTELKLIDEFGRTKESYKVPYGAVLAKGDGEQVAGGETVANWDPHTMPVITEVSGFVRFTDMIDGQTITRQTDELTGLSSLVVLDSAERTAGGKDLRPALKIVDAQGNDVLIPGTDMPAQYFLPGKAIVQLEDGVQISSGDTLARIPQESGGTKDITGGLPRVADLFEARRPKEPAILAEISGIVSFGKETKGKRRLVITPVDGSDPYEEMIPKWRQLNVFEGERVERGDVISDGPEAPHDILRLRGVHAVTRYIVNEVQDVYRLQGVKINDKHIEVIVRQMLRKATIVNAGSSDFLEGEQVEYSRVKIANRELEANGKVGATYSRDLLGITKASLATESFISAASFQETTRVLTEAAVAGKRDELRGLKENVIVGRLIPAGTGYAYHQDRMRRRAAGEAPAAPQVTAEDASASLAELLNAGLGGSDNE
Chain of RNAP-promoter open complex (P0A8V2 whole entry, the tested form may be a part): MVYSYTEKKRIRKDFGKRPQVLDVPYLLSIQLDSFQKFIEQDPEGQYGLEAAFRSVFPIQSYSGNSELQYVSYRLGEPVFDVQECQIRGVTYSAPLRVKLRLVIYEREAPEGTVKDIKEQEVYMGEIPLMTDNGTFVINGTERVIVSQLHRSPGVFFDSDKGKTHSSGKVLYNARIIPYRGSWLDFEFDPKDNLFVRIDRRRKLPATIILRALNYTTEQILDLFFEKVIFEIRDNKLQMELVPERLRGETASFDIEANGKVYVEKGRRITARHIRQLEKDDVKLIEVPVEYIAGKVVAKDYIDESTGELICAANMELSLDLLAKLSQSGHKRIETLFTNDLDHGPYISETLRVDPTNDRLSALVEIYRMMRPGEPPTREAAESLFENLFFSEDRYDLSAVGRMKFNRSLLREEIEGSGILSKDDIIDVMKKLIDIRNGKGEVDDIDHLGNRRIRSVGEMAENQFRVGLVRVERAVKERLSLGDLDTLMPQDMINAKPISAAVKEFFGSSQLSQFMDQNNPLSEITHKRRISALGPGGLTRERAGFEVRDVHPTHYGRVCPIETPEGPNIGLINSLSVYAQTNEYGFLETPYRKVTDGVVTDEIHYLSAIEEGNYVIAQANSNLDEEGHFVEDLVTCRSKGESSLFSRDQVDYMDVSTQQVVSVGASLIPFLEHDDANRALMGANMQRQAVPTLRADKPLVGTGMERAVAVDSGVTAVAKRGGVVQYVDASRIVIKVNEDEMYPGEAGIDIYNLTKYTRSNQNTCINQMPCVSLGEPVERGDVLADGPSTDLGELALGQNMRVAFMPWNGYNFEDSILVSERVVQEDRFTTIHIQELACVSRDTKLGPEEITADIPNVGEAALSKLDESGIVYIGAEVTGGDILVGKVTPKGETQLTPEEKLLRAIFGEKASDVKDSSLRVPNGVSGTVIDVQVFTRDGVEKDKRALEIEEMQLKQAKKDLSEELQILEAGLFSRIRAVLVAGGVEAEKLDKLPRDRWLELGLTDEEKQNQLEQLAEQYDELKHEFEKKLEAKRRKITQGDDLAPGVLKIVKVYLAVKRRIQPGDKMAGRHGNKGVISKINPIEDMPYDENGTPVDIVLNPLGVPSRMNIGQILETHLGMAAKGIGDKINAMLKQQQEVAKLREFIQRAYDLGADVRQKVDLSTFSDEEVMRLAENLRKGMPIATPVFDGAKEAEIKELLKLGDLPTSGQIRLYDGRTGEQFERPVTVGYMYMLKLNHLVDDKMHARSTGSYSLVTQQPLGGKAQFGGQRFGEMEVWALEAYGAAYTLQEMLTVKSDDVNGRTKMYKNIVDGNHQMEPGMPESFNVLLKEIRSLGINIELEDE
Series [11] concerns the target Escherichia coli RNAP σ70 holoenzyme (Escherichia coli, UniProt P0A8T7+P0A8V2). Kind of series: Fluorescence-detected RNAP assay, Escherichia coli RNAP. In kind it is biochemical. The settings on record: fluorescent-detected RNAP assays. The procedure: Fluorescence-detected RNAP assays with Escherichia coli RNAP were performed by a modification of the procedure of Kuhlman et al., Anal. Biochem. 324:183-190, 2004]. Reaction mixtures contained (20 μl): 0-100 nM test compound, 75 nM Escherichia coli RNAP σ^70 holoenzyme, 20 nM 384 bp DNA fragment containing the bacteriophage T4 N25 promoter, 100 μM ATP, 100 μM GTP, 100 μM UTP, 100 μM CTP, 50 mM Tris-HCl, pH 8.0, 100 mM KCl, 10 mM MgCl2, 1 mM DTT, 10 μg/ml bovine serum albumin, and 5.5% glycerol. Reaction components other than DNA and NTPs were pre-incubated for 10 min at 37° C. Reactions were carried out by addition of DNA and incubation for 5 min at 37° C., followed by addition of NTPs and incubation for 60 min at 37° C. DNA was removed by addition of 1 μl 5 mM CaCl2 and 2 U DNasel (Ambion, Inc.), followed by incubation for 90 min at 37° C. RNA was quantified by addition of 100 μl RiboGreen RNA Quantitation Reagent (Invitrogen, Inc.; 1:500 dilution in Tris-HCl, pH 8.0, 1 mM EDTA), followed by incubation for 10 min at 25° C., followed by measurement of fluorescence intensity [excitation wavelength=485 nm and emission wavelength=535 nm; QuantaMaster QM1 spectrofluorometer (PTI, Inc.)].
as §2

The subject of series [12] is Vero E6 cells (ATCC CRL1586). Kind of series: Cytotoxicity to mammalian cells in culture (CellTiter96 assay). The series is classed as cell-based. The source says: MICs for mammalian cells (Vero E6) in culture were quantified using CellTiter96 assay (Promega. Inc.; procedures as specified by the manufacturer).
For series [13], the system named is Gram-positive and Gram-negative bacterial RNAP. The settings on record: reported previously (Miao et al. 1997); cited from earlier work.
Series [14] concerns RNAP. The experiment in a line: Mechanism of transcription inhibition (nucleotide addition, trigger loop, NTP competition). In kind it is biochemical.
Series [15] concerns bacterial cells in culture. To be noted: Ebright et al., WO/2012/129173; cited from earlier work.

Structures are written as SMILES. In brackets after ≈: the same amount, converted by molar mass. Numbered stars: 1 amine (or outer) side, 2 acyl side, 3 side chain; on linkers, the order of the positions; unused ones are H or OH. Bridge positions count the residues as written; N and C are the ends. Square brackets hold non-standard residues; d marks the D form. Peptide text beside a SMILES is read from it. * marks the point of attachment. X1 = C[C@@H](Oc1ccc([C@H](N[*:1])C(=O)[*:2])cc1)C1(/C=C/C(=O)[*:3])CO1; Pentanoyl(2R-Me,3R-OH,4-Me) = CC(C)[C@@H](O)[C@@H](C)C(=O)*; d(aIle) = CC[C@H](C)[C@@H](N)C(=O)O; d(aThr) = C[C@@H](O)[C@@H](N)C(=O)O; NMeF = CN[C@@H](Cc1ccccc1)C(=O)O

In general, MIC50 refers to the lowest concentration that inhibits either 50% of growth or 50% of the strains tested, depending on the study.

On to `CC[C@H](C)[C@H]1NC(=O)[C@@H](NC(=O)[C@H](C)[C@H](O)C(C)C)[C@@H](C)OC(=O)[C@@H]2COC(=O)CNC(=O)/C=C/C3(CO3)[C@@H](C)Oc3ccc(cc3)[C@H](NC1=O)C(=O)N(C)[C@@H](Cc1ccccc1)C(=O)N[C@H]([C@@H](C)O)C(=O)N2` (stereo partly drawn) [SalA (1), salinamide A] ({Pentanoyl(2R-Me,3R-OH,4-Me)}-T[d(aIle)][X1][NMeF][d(aThr)]S; ester 1-C; linker 3-6 via G), for which, in series [1], the “cross-resistance of CBR703-resistant mutants to Sal” value was “not cross-resistant” and the “cross-resistance of rifamycin-resistant mutants to Sal” value was “not cross-resistant”. In addition, in [2], the “cross-resistance of streptolydigin-resistant, myxopyronin-resistant, and lipiarmycin-resistant mutants with Sal” value is recorded as “do not exhibit cross-resistance”. Besides, the “antibacterial activity against Pseudomonas aeruginosa” value in [3] is reported as “exhibit antibacterial activity”. Further, the “antibacterial activity against Haemophilus influenzae” value in series [4] is listed as “exhibit antibacterial activity”. In addition, the “antibacterial activity against Neisseria gonorrhoeae” value in series [5] is “exhibit antibacterial activity”. For the same compound, the MIC50 in series [6] came to 0.024 µg/mL (≈ 0.0235 µM). For the same compound, the MIC50 in series [7] (Enterobacter cloacae, ATCC13047, minimal concentration resulting in ≧50% inhibition of bacterial growth, read-out: MIC50 Enterobacter cloacae ATCC 13047) turned out to be 1.56 µg/mL (≈ 1.53 µM). Moreover, the “antibacterial activity against Enterobacter cloacae” value in series [7] (Gram-negative bacterial pathogen) is on record as “exhibit antibacterial activity”. Also, the “antibacterial activity against Gram-positive bacterial pathogens” value in [8] is “exhibit antibacterial activity”. For the same compound, in series [9], the “inhibition of human RNAP I, II, and III” value is listed as “do not detectably inhibit”. Besides, the IC50 in [9] (read-out: IC50 human RNAP I/II/III) was over 100 µM. Also, the “inhibition of formation of the RNAP-promoter open complex in transcription initiation” value in series [10] is “does not inhibit”. In [11], this compound yielded an IC50 of 1 µM. Further, in [12], the “inhibition of growth of mammalian cells in culture” value is “do not detectably inhibit”. Besides, in [12] (Table 3), the “MIC50 Vero E6 ATCC CRL1586” value was over 100 µg/mL. Also, the “inhibition of Gram-positive and Gram-negative bacterial RNAP in vitro” value in series [13] is reported as “inhibits”. Moreover, in [14], the “inhibition of nucleotide addition in transcription initiation and transcription elongation” value is listed as “inhibits”; the “inhibition of wild-type RNAP versus RNAP-derivative having a deletion of the trigger loop” value is “equal extents”; the “mode of transcription inhibition with respect to NTP substrate” value is reported as “noncompetitive”. For the same compound, the “inhibition of RNA synthesis in bacterial cells in culture” value in series [15] is listed as “inhibits”.
